Measured values as given in patent publication US20160346249A1 (priority 2012, published 2016).

Columns and labels:
[1] = Single-dose intravenous rat toxicology study; details: Crl:CD(SD)IGS BR, in vivo
Protocol: Clinical observations, body weights, and food consumption were noted periodically. All animals were euthanized following a minimum 13-day non-dosing (recovery) period. Clinical pathology evaluations (hematology and serum chemistry) were performed on all rats at the time of necropsy and selected organs were weighed. No microscopic examinations were performed.

[2] = Rabbit developmental toxicity study with toxicokinetics; details: female, New Zealand white, in vivo; for AUC(0-t) / Cmax / Tmax: pregnant rabbits; for AUC(0-t): GD 20, read-out: AUC0-24; for Cmax / Tmax: GD 20
Protocol: For the toxicology assessment, 27-33 per rabbits per group were dosed.
(§1) On GD 29, a laparohysterectomy was performed on each surviving female.

[3] = Rat pulmonary function study; type: in vivo; details: for animals with test article-related clinical observations: 6 hours post-dosing
Protocol: There were eight male rats per group. Clinical examinations were performed daily, and detailed physical examinations were performed prior to dosing and again following pulmonary functional assessments. Four replicates of 2 animals from each treatment group were evaluated over a 2-week period. Following dose administration, the rats were placed in a head-out neck-sealed plethysmograph for measurement of pulmonary function parameters (respiratory rate, tidal volume, and calculated minute volume). Pulmonary function data were collected for at least 60 minutes prior to dosing (Day −1) and for at least 6 hours post-dosing on Day 0.

[4] = Rat CNS study (functional observational battery, locomotor activity); details: Crl:CD(SD)IGS BR, in vivo; for mean rearing counts lower than control, 2-minute open field: po; for mean rearing counts lower than control, 2-minute open field / mean urination values higher than control: 1 h
Protocol: There were eight animals of each gender per group. Functional observational battery (FOB) assessments and automated 1-hour locomotor activity data were recorded for all animals 7 days prior to dose administration (pre-test), and again beginning 1 hour following dosing on Day 0. Following completion of the FOB and locomotor activity evaluations, all animals were euthanized and discarded.

[5] = Multiple-dose safety and PK study 25 mg BID and 50 mg BID for 10 days; type: in vivo, human; details: for drug accumulation: 10 days; for Cmax / Tmax / half-life / AUC(0-t): male, human, in vivo, healthy male subjects, mean (SD); for AUC(0-t): read-out: AUC0-12
Description: Twenty-two male subjects were randomized for the study and received study medication.

[6] = Rabbit pilot developmental toxicity study; type: in vivo; details: 30 mg/kg/day, GD 14
Protocol: as §1

[7] = Female rat fertility study
Protocol: Physical signs, body weight, and food consumption were recorded periodically. Females were housed for up to 20 nights 1:1 with untreated males following 3 weeks of treatment. During cohabitation, vaginal lavages were performed daily. The presence of sperm in the lavage or a vaginal plug was considered positive evidence of mating. […] The day of confirmed mating was considered GD 0. Females with a confirmed mating were euthanized between GD 15 and 17. The uterus of each female was examined to determine pregnancy status. If there was no gross evidence of pregnancy, the uterus was stained with ammonium sulfide to visualize any early implantation sites. Corpora lutea per female were counted. Uterine implantations were counted, and each was classified as a live fetus, dead fetus, or a resorption. Fetuses were euthanized by rapid induction of hypothermia and discarded without further examination.

[8] = Brain and plasma levels of amitifadine and lactam metabolite EB-10101 in rat; type: in vivo; parameters: metabolite plasma level (mean±SEM): unit not given here; details: for metabolite plasma level (mean±SEM): amitifadine 10 mg/kg po
Protocol: The studies are conducted in accordance with the Institutional Animal Care and Use Committee guidelines. […] At 0.5, 1, 2, and 4 hour after dosage, animals are briefly anesthetized in a chamber containing 4% isoflurane and rapidly decapitated. Trunk blood is collected in heparinized tubes (9 units/ml whole blood), immediately chilled to 4° C., centrifuged, and the plasma is frozen at −80° C. until analyzed. Brains are quickly removed, bisected along the midline, and frozen at −80° C. until analyzed.
Plasma and brain samples are allowed to thaw on ice and are homogenized in a 20 ml glass vial in two volumes of ice cold water using a handheld homogenizer (VDI 12, VWR International). Standard curves are prepared in water, control plasma, and control brain homogenate. Equal volumes (100 μl) of plasma and brain homogenate samples, distilled water and internal standard are mixed in 1.5 ml polypropylene tubes and 300 μl of acetonitrile is added to each mixture. Samples are then mixed thoroughly by placing on a shaker at 200 RPM for 40 minutes at room temperature. The samples are then centrifuged at 10,000×g for 10 minutes at 4° C. and the supernatant (200 μl) is transferred to a tube containing 2 μl of 10% formic acid. The samples are subjected to a Zorbax SBC18 Solvent Saver Plus 3.0×150 mm 3.5-μm column on a Shimadzu Prominence LC. […] The concentration of compound in the column effluent is measured using an Applied Biosystems API-3200 triple quadrupole mass spectrometer.

With `Clc1ccc([C@]23CNC[C@H]2C3)cc1Cl` [amitifadine, (+)-1-(3,4-dichlorophenyl)-3-azabicyclo[3.1.0]hexane] as the molecule, how does the NOAEL at 13 days ([1]; female rats) read?
Its NOAEL at 13 days is 5 mg/kg.

What about the NOAEL at 13 days ([1]; male rats) of the same molecule?
The NOAEL at 13 days was 1.5 mg/kg.

What about the AUC(0-t) ([2]; oral, 20 mg/kg/day) of the same molecule?
The AUC(0-t) was 19200 ng·h/mL.

What about the NOAEL ([2]; po, oral gavage GD 7-20, read-out: NOAEL for developmental toxicity) of the same molecule?
Its NOAEL is 20 mg/kg/day.

What about the NOAEL ([2]; po, oral gavage GD 7-20, read-out: NOAEL for maternal toxicity) of the same molecule?
The NOAEL was 10 mg/kg/day.

And the Cmax ([2]; po, 3 mg/kg/day)?
The Cmax was 309 ng/mL.

What about the Tmax ([2]; po, 3 mg/kg/day) of the same molecule?
Its Tmax is 1 h.

And the AUC(0-t) ([2]; po, 3 mg/kg/day)?
The AUC(0-t) was 1320 ng·h/mL.

And the Cmax ([2]; po, 10 mg/kg/day)?
Its Cmax is 1090 ng/mL.

What about the Tmax ([2]; po, 10 mg/kg/day) of the same molecule?
The Tmax was 1 h.

What about the AUC(0-t) ([2]; po, 10 mg/kg/day) of the same molecule?
Its AUC(0-t) is 5860 ng·h/mL.

And the Cmax ([2]; po, 20 mg/kg/day)?
The Cmax was 3200 ng/mL.

What about the Tmax ([2]; po, 20 mg/kg/day) of the same molecule?
Its Tmax is 1 h.

And the “animals with test article-related clinical observations” value ([3]; 30 mg/kg)?
Its value is “⅜”.

And the increased respiratory frequency ([3]; 100 mg/kg, 16 to 30 minutes post-dosing)?
Its increased respiratory frequency is 23%.

What about the “animals with test article-related clinical observations” value ([3]; 100 mg/kg) of the same molecule?
Its value is 6/8.

What about the elevated respiratory frequency ([3]; 100 mg/kg, later post-treatment intervals) of the same molecule?
Its elevated respiratory frequency is no less than 33%.

And the NOAEL ([3]; male, Crl:CD(SD)IGS BR, rat, in vivo, single oral gavage)?
Its NOAEL is 30 mg/kg.

What about the NOAEL ([4]; both sexes, single oral gavage, read-out: NOAEL for CNS toxicity) of the same molecule?
Its NOAEL is 100 mg/kg.

And the “mean rearing counts lower than control, 2-minute open field” value (“mean rearing counts lower than control” for short) ([4]; female, 30 mg/kg)?
Its value is 67.1%.

What about the “mean rearing counts lower than control” value ([4]; female, 100 mg/kg) of the same molecule?
The value was 78.6%.

And the “mean urination values higher than control” value ([4]; male, 10 mg/kg)?
Its value is “approximately 3 fold”.

What about the “mean urination values higher than control” value ([4]; male, 30 mg/kg) of the same molecule?
The value was “approximately 3 fold”.

And the “mean urination values higher than control” value ([4]; male, 100 mg/kg)?
The value was roughly 5 fold.

What about the “mean rearing counts lower than control” value ([4]; male, 100 mg/kg) of the same molecule?
The value was 56.5%.

And the drug accumulation ([5]; 25 mg BID)?
The drug accumulation was 1.27.

And the drug accumulation ([5]; 50 mg BID)?
Its drug accumulation is 1.44.

And the Cmax ([5]; 25 mg, 25 mg BID, Day 1)?
Its Cmax is 327 ng/mL.

And the Tmax ([5]; 25 mg, 25 mg BID, Day 1)?
The Tmax was 0.9 h.

And the half-life ([5]; 25 mg, 25 mg BID, Day 1)?
Its half-life is 196 min.

And the AUC(0-t) ([5]; 25 mg, 25 mg BID, Day 1)?
Its AUC(0-t) is 1360 ng·h/mL.

What about the Cmax ([5]; 25 mg, 25 mg BID, Day 10) of the same molecule?
The Cmax was 388 ng/mL.

And the Tmax ([5]; 25 mg, 25 mg BID, Day 10)?
The Tmax was 1.07 h.

What about the half-life ([5]; 25 mg, 25 mg BID, Day 10) of the same molecule?
Its half-life is 200 min.

What about the AUC(0-t) ([5]; 25 mg, 25 mg BID, Day 10) of the same molecule?
The AUC(0-t) was 1700 ng·h/mL.

What about the Cmax ([5]; 50 mg, 50 mg BID, Day 1) of the same molecule?
The Cmax was 496 ng/mL.

What about the half-life ([5]; 50 mg, 50 mg BID, Day 1) of the same molecule?
The half-life was 191 min.

And the AUC(0-t) ([5]; 50 mg, 50 mg BID, Day 1)?
The AUC(0-t) was 2240 ng·h/mL.

What about the Cmax ([5]; 50 mg, 50 mg BID, Day 10) of the same molecule?
Its Cmax is 744 ng/mL.

And the Tmax ([5]; 50 mg, 50 mg BID, Day 10)?
The Tmax was 1.18 h.

And the half-life ([5]; 50 mg, 50 mg BID, Day 10)?
The half-life was 178 min.

And the AUC(0-t) ([5]; 50 mg, 50 mg BID, Day 10)?
Its AUC(0-t) is 3200 ng·h/mL.

What about the maternal outcome [6] of the same molecule?
The maternal outcome was “all females in the 30 mg/kg/day group were euthanized on GD 14”.

What about the body weight loss ([7]; 34 mg/kg/day, first 4 days) of the same molecule?
The body weight loss was -26 g.

What about the decreased food consumption ([7]; 34 mg/kg/day, first 4 days) of the same molecule?
Its decreased food consumption is −50%.

What about the NOEL reproductive performance ([7]; female rats) of the same molecule?
Its NOEL reproductive performance is no less than 34 mg/kg/day.

And the NOEL general toxicity ([7]; female, Crl:CD(SD), rat, in vivo)?
Its NOEL general toxicity is 9 mg/kg/day.

What does the source list for `O=C1NCC2(c3ccc(Cl)c(Cl)c3)CC12` (stereo not shown) [EB-10101, 5-(3,4-dichloro-phenyl)-3-aza-bicyclo[3.1.0]hexan-2-one]?
metabolite plasma level (mean±SEM) ([8]; 0.5 h): 1153±610; metabolite plasma level (mean±SEM) ([8]; 1 h): 1620±303; metabolite plasma level (mean±SEM) ([8]; 2 h): 3831±1127; metabolite plasma level (mean±SEM) ([8]; 4 h): 8896±794; Kp at 0.5 h ([8]; male, Sprague-Dawley, rat, brain and plasma, 10 mg/kg oral, 0.5 h, read-out: brain to plasma ratio): 1.1; Kp at 1 h ([8]; male, Sprague-Dawley, rat, brain and plasma, 10 mg/kg oral, 1 h, read-out: brain to plasma ratio): 1.3; Kp at 2 h ([8]; male, Sprague-Dawley, rat, brain and plasma, 10 mg/kg oral, 2 h, read-out: brain to plasma ratio): 1.4; Kp at 4 h ([8]; male, Sprague-Dawley, rat, brain and plasma, 10 mg/kg oral, 4 h, read-out: brain to plasma ratio): 1.7
